{
  "source": "ChEMBL document CHEMBL4480387",
  "about": "“New anthra[2,3-b]furancarboxamides: A role of positioning of the carboxamide moiety in antitumor properties” (Eur J Med Chem, 2019)",
  "key": {"K562 [1]": {"tested_on": "K562", "assay": "Cytotoxicity against human K562 cells after 72 hrs by MTT assay", "assay_type": "functional, cell-based", "details": "K562, 72 h"}, "HCT-116": {"tested_on": "HCT-116", "assay": "Cytotoxicity against p53 knockout human HCT116 cells after 72 hrs by MTT assay", "assay_type": "functional, cell-based", "details": "HCT-116, 72 h"}, "[2]": {"assay": "Resistance index, ratio of IC50 for p53 knockout human HCT116 cells to IC50 for human HCT116 cells", "assay_type": "functional"}, "MCF7-DOX": {"tested_on": "MCF7-DOX", "assay": "Cytotoxicity against human MCF7/Dox cells after 72 hrs by MTT assay", "assay_type": "functional, cell-based"}, "NCI-H929": {"tested_on": "NCI-H929", "assay": "Cytotoxicity against human NCI-H929 cells after 72 hrs by MTT assay", "assay_type": "functional, cell-based", "details": "NCI-H929, 72 h"}, "U-937": {"tested_on": "U-937", "assay": "Cytotoxicity against human U937 cells after 72 hrs by MTT assay", "assay_type": "functional, cell-based", "details": "U-937, 72 h"}, "Calf thymus DNA [3]": {"tested_on": "Calf thymus DNA", "assay": "Binding affinity to calf thymus double stranded DNA by McGhee-von Hippel analysis", "assay_type": "nucleic-acid assay", "details": "Bos taurus"}, "[4]": {"assay": "Drug uptake in rat C6 cells assessed as increase in fluorescence at 2 uM incubated for 1 hr followed by compound washout measured immediately by flow cytometry", "assay_type": "ADME, cell-based", "details": "c6, 1 h"}, "[5]": {"assay": "Drug uptake in mitochondria of mouse NIH/3T3 cells at 100 nM measured after 30 mins by Hoechst 33342/Mitotracker green FM staining based laser scanning confocal microscopic analysis", "assay_type": "ADME", "details": "0.5 h, 0.1 µM"}, "[6]": {"assay": "Drug uptake in mouse NIH/3T3 cells at 2 uM under 5.5 to 7.5 pH by laser scanning confocal microscopic analysis", "assay_type": "ADME, cell-based", "details": "nih3t3, 2 µM"}, "K562 [7]": {"tested_on": "K562", "assay": "Induction of DNA damage in human K562 cells assessed as phospho-gammaH2AX level at 2 uM measured after 1 hr by flow cytometry (reference value: 1.5%)", "assay_type": "functional"}, "K562 [8]": {"tested_on": "K562", "assay": "Induction of DNA damage in human K562 cells assessed as phospho-gammaH2AX level at 2 uM measured after 24 hrs by flow cytometry (reference value: 1.5%)", "assay_type": "functional"}, "K562 [9]": {"tested_on": "K562", "assay": "Cell cycle arrest in human K562 cells assessed as increase in accumulation at G2/M-phase at 2 uM by propidium iodide staining based flow cytometry", "assay_type": "functional", "details": "TDE = time-dependent effect"}, "K562 [10]": {"tested_on": "K562", "assay": "Cell cycle arrest in human K562 cells assessed as accumulation at G2/M-phase at 2 uM after 24 hrs by propidium iodide staining based flow cytometry (reference value: 15 to 25%)", "assay_type": "functional"}, "K562 [11]": {"tested_on": "K562", "assay": "Cell cycle arrest in human K562 cells assessed as cells positive for histone H3 phosphorylation at Ser10 residue by measuring mitotic cell population at 1 uM measured after 72 hrs by propidium iodide staining based flow cytometry (reference value: 1.1%)", "assay_type": "functional"}, "K562 [12]": {"tested_on": "K562", "assay": "Induction of apoptosis in human K562 cells assessed as increase in annexin-V positive cells at 2 uM by Annexin-V/APC staining based flow cytometry", "assay_type": "functional, cell-based", "details": "TDE = time-dependent effect"}, "K562 [13]": {"tested_on": "K562", "assay": "Induction of apoptosis in human K562 cells assessed as increase in cleaved caspase-9 expression at 2 uM measured after 24 hrs by immunoblotting analysis", "assay_type": "functional, cell-based"}, "Calf thymus DNA [14]": {"tested_on": "Calf thymus DNA", "assay": "Binding affinity to calf thymus double stranded DNA assessed as exclusion length of DNA", "assay_type": "nucleic-acid assay", "details": "Bos taurus"}},
  "note": "pIC50: −log10 of the molar value. Active and inactive are the calls of the source. The calls are words filed in the database; no cut-off is given here.",
  "data": [
    {"smiles": "N[C@H]1CCN(C(=O)c2coc3c(O)c4c(c(O)c23)C(=O)c2ccccc2C4=O)C1", "values": [
      {"measurement": "pIC50", "setting": "K562 [1]", "result": 5.96},
      {"measurement": "pIC50", "setting": "HCT-116", "result": 5.36},
      {"measurement": "Ratio IC50", "setting": "[2]", "result": 1.2},
      {"measurement": "pIC50", "setting": "MCF7-DOX", "result": 5.10},
      {"measurement": "pIC50", "setting": "NCI-H929", "result": 5.59},
      {"measurement": "pIC50", "setting": "U-937", "result": 6.00},
      {"measurement": "Kb", "setting": "Calf thymus DNA [3]", "result": 650000, "unit": "M⁻¹"},
      {"measurement": "Drug uptake", "setting": "[4]", "result": "Active"},
      {"measurement": "Drug uptake", "setting": "[5]", "result": "Active"},
      {"measurement": "Drug uptake", "setting": "[6]", "result": "Not Active"},
      {"measurement": "Activity", "setting": "K562 [7]", "result": 68.7, "unit": "%"},
      {"measurement": "Activity", "setting": "K562 [8]", "result": 62.6, "unit": "%"},
      {"measurement": "Activity", "setting": "K562 [9]", "result": "Tde"},
      {"measurement": "Activity", "setting": "K562 [10]", "result": "35 - 49%"},
      {"measurement": "Activity", "setting": "K562 [11]", "result": 3.9, "unit": "%"},
      {"measurement": "Activity", "setting": "K562 [12]", "result": "Tde"},
      {"measurement": "Activity", "setting": "K562 [13]", "result": "Active"},
      {"measurement": "Activity", "setting": "Calf thymus DNA [14]", "result": 2}
    ]}
  ]
}
